Assay results taken from patent publication US11072581B2, “N-acyl-arylsulfonamide derivatives as aminoacyl-tRNA synthetase inhibitors” (Oxford Drug Design Limited, priority 2015, dated 2021).
Counter-ions that a name gives are not always drawn.

Key:
Assay type in all cases: biochemical
Conditions in all cases: i.a. = inactive at a concentration below 50 uM
[1] = target: T1, SauVRS (valyl-tRNA synthetase from Staphylococcus aureus) (Staphylococcus aureus, UniProt Q2FXR8); test: aaRS aminoacylation assay (ATP consumption), SauVRS
T1 construct: made in house; host or cells: Escherichia coli M15
T1 sequence (Q2FXR8 1-876): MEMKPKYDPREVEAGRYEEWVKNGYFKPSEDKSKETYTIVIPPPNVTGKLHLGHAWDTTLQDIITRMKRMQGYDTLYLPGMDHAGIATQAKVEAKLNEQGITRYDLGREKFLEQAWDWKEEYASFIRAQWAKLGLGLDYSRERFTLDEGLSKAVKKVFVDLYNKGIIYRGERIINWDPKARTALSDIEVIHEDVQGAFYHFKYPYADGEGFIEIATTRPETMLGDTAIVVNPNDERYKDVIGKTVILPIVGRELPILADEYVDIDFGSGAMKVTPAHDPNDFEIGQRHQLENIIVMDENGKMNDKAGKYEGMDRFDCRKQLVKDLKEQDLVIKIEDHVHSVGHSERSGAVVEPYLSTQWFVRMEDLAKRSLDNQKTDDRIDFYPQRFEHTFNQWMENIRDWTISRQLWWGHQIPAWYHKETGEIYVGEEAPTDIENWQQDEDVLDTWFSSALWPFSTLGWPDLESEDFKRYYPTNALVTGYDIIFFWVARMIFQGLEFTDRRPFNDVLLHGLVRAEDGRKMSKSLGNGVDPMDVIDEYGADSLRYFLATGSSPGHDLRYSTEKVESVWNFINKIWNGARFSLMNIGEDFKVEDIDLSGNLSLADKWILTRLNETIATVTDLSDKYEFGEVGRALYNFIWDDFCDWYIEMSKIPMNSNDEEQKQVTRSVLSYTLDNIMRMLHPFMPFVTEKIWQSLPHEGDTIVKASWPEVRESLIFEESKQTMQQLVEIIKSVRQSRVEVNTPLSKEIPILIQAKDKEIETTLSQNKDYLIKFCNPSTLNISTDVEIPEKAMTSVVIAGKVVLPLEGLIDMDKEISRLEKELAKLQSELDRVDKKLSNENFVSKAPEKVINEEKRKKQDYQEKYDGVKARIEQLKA
Procedure: (§1) The compounds have been tested for antibacterial activity in vitro as aminoacyl-tRNA synthetases (aaRS) inhibitors following the following process.
(§2) Leucyl-, valyl- and isoleucyl-tRNA synthetases (LRS, VRS and IRS, respectively) from Escherichia coli (Eco) and Staphylococcus aureus (Sau).
(§3) Escherichia coli M15 cells transformed with plasmid pQE-60, or pQE-70, containing the open-reading frame sequence of one targeted aaRS were induced with 1 mM IPTG (Isopropyl β-D-1-thiogalactopyranoside) for 3 h at 37° C. Bacterial cells were harvested and lysed with 20 mM NaH2PO4 (pH 8.0), 200 mM NaCl, 10 mM imidazole and protease inhibitor cocktail (Roche). Pathogenic aaRS was purified by nickel affinity standard chromatography. Protein concentration was determined by spectrophotometry.
(§4) tRNA^Leu, tRNA^Val and tRNA^Ile from E. coli and S. aureus were transcribed in vitro for 4 h at 37° C. using T7 RNA polymerase. Transcription reaction contained 40 mM Tris-HCl (pH 8.0), 22 mM MgCl2, 1 mM spermidine, 5 mM DTT, 0.01% Triton X-100, 4 mM GTP, 4 mM ATP, 4 mM UTP, 4 mM CTP, 16 mM GMP, […] T7 RNA polymerase and 150 μg BstNI digested plasmid. Once finished, the reaction was applied on a 6% polyacrylamide-8 M urea denaturing gel to purify the transcribed tRNA and discard any impurities. Purified tRNA was quantified with Nanodrop 2000 (Thermo Scientific).
(§5) The aminoacylation reaction catalyzed by aminoacyl-tRNA synthetases (aaRS) takes place in two steps. In the first step, aaRS activates its cognate amino acid with ATP; and in the second step the activated amino acid is loaded to its corresponding tRNA. This reaction can be summarized as follows: ARS+aa+ATP=ARS-aa-AMP+PPi ARS-aa-AMP+tRNA=aa-tRNA+AMP+ARS [2] (ARS, Aminoacyl-tRNA synthetase; aa, amino acid; ARS-aa-AMP, enzyme-bound to aminoacyl-adenylate; aa-tRNA, aminoacyl-tRNA).
(§6) The activity of the pathogenic aaRSs was monitored by measuring the ATP consumption rate, since this consumption is directly proportional to the activity of the aaRS. If the tested compound, at a single point concentration of 50 μM, is inhibiting the aminoacylation reaction, there is a decrease in the ATP consumption, compared to the control reaction without compound, allowing the calculation of an inhibition ratio.
(§7) When the inhibition ratio for a given compound was above 80%, IC50 determination was performed with the same enzymatic assay (using the commercial kit Kinase RR from BioThema AB, Sweden) in the presence of serial dilutions of inhibitor. Known inhibitors of LRS, VRS or IRS were used as a positive control of the assay. The IC50 was calculated based on nonlinear regression analysis.

[2] = target: T2, SauIRS (isoleucyl-tRNA synthetase from Staphylococcus aureus) (Staphylococcus aureus, UniProt P41972); test: aaRS aminoacylation assay (ATP consumption), SauIRS
T2 construct: made in house; host or cells: Escherichia coli M15
T2 sequence (P41972 1-917): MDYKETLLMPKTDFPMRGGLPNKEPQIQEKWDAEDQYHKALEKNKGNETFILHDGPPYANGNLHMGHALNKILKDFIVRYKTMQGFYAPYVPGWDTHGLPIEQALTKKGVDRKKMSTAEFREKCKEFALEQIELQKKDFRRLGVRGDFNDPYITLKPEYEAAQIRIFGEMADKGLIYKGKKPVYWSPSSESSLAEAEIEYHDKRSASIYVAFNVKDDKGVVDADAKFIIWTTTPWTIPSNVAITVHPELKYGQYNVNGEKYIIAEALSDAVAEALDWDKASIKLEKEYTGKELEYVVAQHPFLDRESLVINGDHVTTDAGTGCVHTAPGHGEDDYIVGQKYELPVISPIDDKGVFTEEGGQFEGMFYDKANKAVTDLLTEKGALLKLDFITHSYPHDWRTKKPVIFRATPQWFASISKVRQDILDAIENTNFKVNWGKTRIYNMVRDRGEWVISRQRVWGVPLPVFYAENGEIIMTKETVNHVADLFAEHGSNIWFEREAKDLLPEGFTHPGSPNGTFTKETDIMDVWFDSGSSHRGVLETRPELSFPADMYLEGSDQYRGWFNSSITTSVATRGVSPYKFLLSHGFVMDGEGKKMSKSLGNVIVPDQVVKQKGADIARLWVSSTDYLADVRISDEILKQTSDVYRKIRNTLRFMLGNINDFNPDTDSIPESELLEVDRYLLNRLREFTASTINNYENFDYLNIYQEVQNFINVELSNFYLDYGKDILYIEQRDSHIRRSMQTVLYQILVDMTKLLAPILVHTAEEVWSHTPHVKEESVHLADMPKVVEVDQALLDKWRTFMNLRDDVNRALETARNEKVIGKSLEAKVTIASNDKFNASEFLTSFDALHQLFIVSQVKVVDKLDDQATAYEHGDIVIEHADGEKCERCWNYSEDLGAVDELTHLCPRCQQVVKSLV
Procedure: as §1, §2, §3, §4, §5, §6, §7

[3] = target: T3, EcoIRS (isoleucyl-tRNA synthetase from Escherichia coli) (Escherichia coli, UniProt P00956); test: aaRS aminoacylation assay (ATP consumption), EcoIRS
T3 construct: made in house; host or cells: Escherichia coli M15
Procedure: as §1, §2, §3, §4, §5, §6, §7

T3 sequence (P00956 whole entry): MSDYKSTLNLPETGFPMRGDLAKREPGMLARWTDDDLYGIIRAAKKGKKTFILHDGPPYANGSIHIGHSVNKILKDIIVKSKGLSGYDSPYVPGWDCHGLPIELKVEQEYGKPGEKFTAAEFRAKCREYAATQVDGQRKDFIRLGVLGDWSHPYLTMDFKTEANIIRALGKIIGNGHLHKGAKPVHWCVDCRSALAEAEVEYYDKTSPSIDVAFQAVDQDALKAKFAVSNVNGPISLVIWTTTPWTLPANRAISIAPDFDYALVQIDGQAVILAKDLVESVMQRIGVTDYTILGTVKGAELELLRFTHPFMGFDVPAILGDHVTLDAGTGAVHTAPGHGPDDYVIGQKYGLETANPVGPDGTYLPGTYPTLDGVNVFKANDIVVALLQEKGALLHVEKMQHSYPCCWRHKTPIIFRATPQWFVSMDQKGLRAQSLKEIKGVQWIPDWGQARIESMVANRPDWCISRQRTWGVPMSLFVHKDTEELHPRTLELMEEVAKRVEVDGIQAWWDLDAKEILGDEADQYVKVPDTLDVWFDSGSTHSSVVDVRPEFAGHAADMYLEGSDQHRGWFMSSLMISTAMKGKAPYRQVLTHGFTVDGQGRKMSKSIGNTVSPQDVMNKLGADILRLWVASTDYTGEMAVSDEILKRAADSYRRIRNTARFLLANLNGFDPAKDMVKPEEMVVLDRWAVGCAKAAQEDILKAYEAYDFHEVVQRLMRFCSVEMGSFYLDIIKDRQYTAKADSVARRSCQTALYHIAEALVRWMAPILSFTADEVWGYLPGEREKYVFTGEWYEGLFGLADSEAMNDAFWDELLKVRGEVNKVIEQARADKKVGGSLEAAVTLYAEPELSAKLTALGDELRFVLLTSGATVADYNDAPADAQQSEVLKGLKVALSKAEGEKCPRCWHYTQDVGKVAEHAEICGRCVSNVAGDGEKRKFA

CC[C@H](C)[C@H](N)C(=O)NS(=O)(=O)c1ccc2ccccc2c1 [Compound 5.15]
i.a: IC50 SauVRS [1] | IC50 SauIRS [2] | IC50 EcoIRS [3]

CC(C)C[C@H](N)C(=O)NS(=O)(=O)c1cccc2c(N(C)C)cccc12 [Compound 5.16, (S)-2-amino-N-((5-(dimethylamino)naphthalen-1-yl)sulfonyl)-4-methylpentanamide hydrochloride]
i.a: IC50 SauVRS [1] | IC50 SauIRS [2] | IC50 EcoIRS [3]

COc1ccc2cc(S(=O)(=O)NC(=O)[C@@H](N)CC(C)C)ccc2c1 [Compound 5.17]
i.a: IC50 SauVRS [1] | IC50 SauIRS [2] | IC50 EcoIRS [3]

CC(C)C[C@H](N)C(=O)NS(=O)(=O)c1cccc2cccnc12 [Compound 5.19]
i.a: IC50 SauVRS [1] | IC50 SauIRS [2] | IC50 EcoIRS [3]

CC(C)C[C@H](N)C(=O)NS(=O)(=O)c1cccc2ccncc12 [Compound 5.21]
i.a: IC50 SauVRS [1] | IC50 SauIRS [2] | IC50 EcoIRS [3]

CC(C)C[C@H](N)C(=O)NS(=O)(=O)c1ccc(Br)c2ccncc12 [Compound 5.22, trifluoroacetate]
i.a: IC50 SauVRS [1] | IC50 SauIRS [2] | IC50 EcoIRS [3]

CC(C)C[C@H](N)C(=O)NS(=O)(=O)c1cccc2cc(C(N)=O)ncc12 [Compound 5.24, 8-(N-(L-Leucyl)sulfamoyl)isoquinoline-3-carboxamide]
i.a: IC50 SauVRS [1] | IC50 SauIRS [2] | IC50 EcoIRS [3]

CC(C)C[C@H](N)C(=O)NS(=O)(=O)c1cccc2c1OCCC2 [Compound 5.25]
i.a: IC50 SauVRS [1] | IC50 SauIRS [2] | IC50 EcoIRS [3]

CC(C)C[C@H](N)C(=O)NS(=O)(=O)c1cccc2c1CNCC2 [Compound 5.26, (S)-2-amino-4-methyl-N-((1,2,3,4-tetrahydroisoquinolin-8-yl)sulfonyl) pentanamide trifluoroacetate]
i.a: IC50 SauVRS [1] | IC50 SauIRS [2] | IC50 EcoIRS [3]

CNc1cc(-c2cccc(S(=O)(=O)NC(=O)[C@@H](N)CC(C)C)c2)nc(N)n1 [Compound 5.27]
i.a: IC50 SauVRS [1] | IC50 SauIRS [2] | IC50 EcoIRS [3]

CC(C)C[C@H](N)C(=O)NS(=O)(=O)c1cccc(-c2cc(N(C)C)nc(N)n2)c1 [Compound 5.28]
i.a: IC50 SauVRS [1] | IC50 SauIRS [2] | IC50 EcoIRS [3]

CSc1cc(-c2cccc(S(=O)(=O)NC(=O)[C@@H](N)CC(C)C)c2)nc(N)n1 [Compound 5.29]
i.a: IC50 SauVRS [1] | IC50 SauIRS [2] | IC50 EcoIRS [3]

Cc1cc(-c2cccc(S(=O)(=O)NC(=O)[C@@H](N)CC3CC3)c2)nc(N)n1 [Compound 5.30]
i.a: IC50 SauVRS [1] | IC50 SauIRS [2] | IC50 EcoIRS [3]

Cc1cc(-c2cccc(S(=O)(=O)NC(=O)[C@@H](N)CC3CCC3)c2)nc(N)n1 [Compound 5.31]
i.a: IC50 SauVRS [1] | IC50 SauIRS [2] | IC50 EcoIRS [3]

Cc1cc(-c2cccc(S(=O)(=O)NC(=O)[C@@H](N)C3CC3)c2)nc(N)n1 [Compound 5.33]
i.a: IC50 SauVRS [1] | IC50 SauIRS [2] | IC50 EcoIRS [3]

Cc1cc(-c2cccc(S(=O)(=O)NC(=O)[C@@H](N)CC3CCCCC3)c2)nc(N)n1 [Compound 5.34]
i.a: IC50 SauVRS [1] | IC50 SauIRS [2] | IC50 EcoIRS [3]
